According to publication PMC11876601 (Molecular Systems Biology, 2025):
pEC50: −log10 of the molar value. Values joined by “and” are separate entries in the source; they are usually repeats but may differ in a detail not shown here. Equal values may be shown once. Read-outs that look alike come from different tables or passages of the source.

System: AsPC-1 cells
Experiment: Cell proliferation assay, chemodrug + ATR inhibitor (Incucyte confluence, 72 h);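 further: underlying read-out for every value is AsPC-1 confluence after 72 h incubation at 37 °C and 5% CO2, divided by that well's starting confluence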
Conditions: for Curve bottom / Curve top: fitted curve, relative response; for Curve slope: fitted dose-response curve; for pEC50 / EC50: Homo sapiens
[1] = AsPC1, Experiment GEM alone in the Berzosertib series
[2] = AsPC1, Experiment GEM alone in the Ceralasertib series
[3] = AsPC1, Experiment GEM alone in the Elimusertib series
[4] = AsPC1, Experiment GEM alone in the Gartisertib series

Q: With `Nc1ccn([C@@H]2O[C@H](CO)[C@@H](O)C2(F)F)c(=O)n1` [GEM, Gemcitabine] as the molecule, how does the Curve bottom [1] read?
A: 1.01 and 1.02

Q: And the Curve top [1]?
A: 0.52 and 0.50

Q: What about the Curve bottom [2] of the same molecule?
A: 0.98 and 0.99

Q: And the Curve top [2]?
A: 0.56 and 0.44 and 0.46

Q: What about the Curve bottom [3] of the same molecule?
A: 1.00 and 0.96 and 1.04

Q: And the Curve top [3]?
A: 0.42 and 0.43 and 0.44

Q: What about the Curve slope [3] of the same molecule?
A: 1.10 and 1.63 and 1.11

Q: What about the Curve bottom [4] of the same molecule?
A: 0.99 and 0.98 and 1.02

Q: And the Curve top [4]?
A: 0.53 and 0.46 and 0.43

Q: What about the Curve slope [4] of the same molecule?
A: 0.94 and 1.48 and 1.05

Q: And the “Raw data (confluence at 72 h/confluence at 0 h)” value (“Raw data” for short) (Berzosertib experiment, replicate R3, titrated drug dose 1 nM)?
A: 3.42

Q: And the “Raw data” value (Berzosertib experiment, replicate R3, titrated drug dose 3 nM)?
A: 3.51

Q: What about the “Raw data” value (Berzosertib experiment, replicate R3, titrated drug dose 10 nM) of the same molecule?
A: 3.46

Q: What about the “Raw data” value (Berzosertib experiment, replicate R3, titrated drug dose 30 nM) of the same molecule?
A: 3.01

Q: What about the “Raw data” value (Berzosertib experiment, replicate R3, titrated drug dose 100 nM) of the same molecule?
A: 2.04

Q: What about the “Raw data” value (Berzosertib experiment, replicate R1, titrated drug dose 1 nM) of the same molecule?
A: 3.13

Q: And the “Raw data” value (Berzosertib experiment, replicate R1, titrated drug dose 3 nM)?
A: 3.29

Q: And the “Raw data” value (Berzosertib experiment, replicate R1, titrated drug dose 10 nM)?
A: 2.93

Q: What about the “Raw data” value (Berzosertib experiment, replicate R1, titrated drug dose 30 nM) of the same molecule?
A: 2.52

Q: What about the “Raw data” value (Berzosertib experiment, replicate R1, titrated drug dose 100 nM) of the same molecule?
A: 2.11

Q: And the “Raw data” value (Berzosertib experiment, replicate R1, titrated drug dose 300 nM)?
A: 1.92

Q: What about the “Raw data” value (Berzosertib experiment, replicate R2, titrated drug dose 1 nM) of the same molecule?
A: 3.67

Q: What about the “Raw data” value (Berzosertib experiment, replicate R2, titrated drug dose 3 nM) of the same molecule?
A: 3.44

Q: What about the “Raw data” value (Berzosertib experiment, replicate R2, titrated drug dose 10 nM) of the same molecule?
A: 3.56

Q: What about the “Raw data” value (Berzosertib experiment, replicate R2, titrated drug dose 30 nM) of the same molecule?
A: 3.03

Q: What about the “Raw data” value (Ceralasertib experiment, replicate R1, titrated drug dose 1 nM) of the same molecule?
A: 2.79

Q: And the “Raw data” value (Ceralasertib experiment, replicate R1, titrated drug dose 3 nM)?
A: 3.19

Q: And the “Raw data” value (Ceralasertib experiment, replicate R1, titrated drug dose 10 nM)?
A: 2.64

Q: And the “Raw data” value (Ceralasertib experiment, replicate R1, titrated drug dose 30 nM)?
A: 2.39

Q: And the “Raw data” value (Ceralasertib experiment, replicate R1, titrated drug dose 100 nM)?
A: 2.12

Q: What about the “Raw data” value (Ceralasertib experiment, replicate R2, titrated drug dose 1 nM) of the same molecule?
A: 3.88

Q: What about the “Raw data” value (Ceralasertib experiment, replicate R2, titrated drug dose 3 nM) of the same molecule?
A: 3.93

Q: And the “Raw data” value (Ceralasertib experiment, replicate R2, titrated drug dose 10 nM)?
A: 3.66

Q: What about the “Raw data” value (Ceralasertib experiment, replicate R2, titrated drug dose 30 nM) of the same molecule?
A: 3.19

Q: And the “Raw data” value (Ceralasertib experiment, replicate R2, titrated drug dose 100 nM)?
A: 2.36

Q: What about the “Raw data” value (Ceralasertib experiment, replicate R2, titrated drug dose 300 nM) of the same molecule?
A: 1.88

Q: What about the “Raw data” value (Ceralasertib experiment, replicate R3, titrated drug dose 1 nM) of the same molecule?
A: 3.42

Q: What about the “Raw data” value (Ceralasertib experiment, replicate R3, titrated drug dose 3 nM) of the same molecule?
A: 3.64

Q: What about the “Raw data” value (Experiment (ATRi) Elimusertib, replicate R1, drug dose (titrated) 1 nM) of the same molecule?
A: 3.45

Q: And the “Raw data” value (Experiment (ATRi) Elimusertib, replicate R1, drug dose (titrated) 3 nM)?
A: 3.34

Q: What about the “Raw data” value (Experiment (ATRi) Elimusertib, replicate R1, drug dose (titrated) 10 nM) of the same molecule?
A: 3.17

Q: What about the “Raw data” value (Experiment (ATRi) Elimusertib, replicate R1, drug dose (titrated) 30 nM) of the same molecule?
A: 2.54

Q: And the “Raw data” value (Experiment (ATRi) Elimusertib, replicate R1, drug dose (titrated) 100 nM)?
A: 1.97

Q: And the “Raw data” value (Experiment (ATRi) Elimusertib, replicate R1, drug dose (titrated) 1000 nM)?
A: 1.56

Q: What about the “Raw data” value (Experiment (ATRi) Elimusertib, replicate R1, drug dose (titrated) 3000 nM) of the same molecule?
A: 1.44

Q: And the “Raw data” value (Experiment (ATRi) Elimusertib, replicate R2, drug dose (titrated) 1 nM)?
A: 3.86

Q: And the “Raw data” value (Experiment (ATRi) Elimusertib, replicate R2, drug dose (titrated) 3 nM)?
A: 3.95

Q: What about the “Raw data” value (Experiment (ATRi) Elimusertib, replicate R2, drug dose (titrated) 10 nM) of the same molecule?
A: 3.59

Q: And the “Raw data” value (Experiment (ATRi) Elimusertib, replicate R2, drug dose (titrated) 30 nM)?
A: 3.07

Q: What about the “Raw data” value (Experiment (ATRi) Elimusertib, replicate R2, drug dose (titrated) 100 nM) of the same molecule?
A: 2.33

Q: What about the “Raw data” value (Experiment (ATRi) Elimusertib, replicate R3, drug dose (titrated) 1 nM) of the same molecule?
A: 3.76

Q: And the “Raw data” value (Experiment (ATRi) Elimusertib, replicate R3, drug dose (titrated) 3 nM)?
A: 3.85

Q: And the “Raw data” value (Experiment (ATRi) Elimusertib, replicate R3, drug dose (titrated) 10 nM)?
A: 3.75

Q: And the “Raw data” value (Experiment (ATRi) Elimusertib, replicate R3, drug dose (titrated) 30 nM)?
A: 3.15

Q: What about the “Raw data” value (Experiment (ATRi) Elimusertib, replicate R3, drug dose (titrated) 100 nM) of the same molecule?
A: 2.28

Q: What about the “Raw data” value (Experiment (ATRi) Gartisertib, replicate R1, drug dose (titrated) 1 nM) of the same molecule?
A: 3.28

Q: What about the “Raw data” value (Experiment (ATRi) Gartisertib, replicate R1, drug dose (titrated) 3 nM) of the same molecule?
A: 3.04

Q: What about the “Raw data” value (Experiment (ATRi) Gartisertib, replicate R1, drug dose (titrated) 10 nM) of the same molecule?
A: 2.71

Q: What about the “Raw data” value (Experiment (ATRi) Gartisertib, replicate R1, drug dose (titrated) 30 nM) of the same molecule?
A: 2.57

Q: And the “Raw data” value (Experiment (ATRi) Gartisertib, replicate R1, drug dose (titrated) 100 nM)?
A: 2.04

Q: And the “Raw data” value (Experiment (ATRi) Gartisertib, replicate R1, drug dose (titrated) 300 nM)?
A: 1.92

Q: And the “Raw data” value (Gartisertib experiment, replicate R2, titrated drug dose 1 nM)?
A: 4.01

Q: And the “Raw data” value (Gartisertib experiment, replicate R2, titrated drug dose 3 nM)?
A: 4.05

Q: And the “Raw data” value (Gartisertib experiment, replicate R2, titrated drug dose 10 nM)?
A: 3.93

Q: And the “Raw data” value (Gartisertib experiment, replicate R2, titrated drug dose 30 nM)?
A: 3.32

Q: And the “Raw data” value (Gartisertib experiment, replicate R2, titrated drug dose 100 nM)?
A: 2.49

Q: What about the “Raw data” value (Gartisertib experiment, replicate R2, titrated drug dose 300 nM) of the same molecule?
A: 2.07

Q: What about the “Raw data” value (Gartisertib experiment, replicate R2, titrated drug dose 1000 nM) of the same molecule?
A: 1.91

Q: What about the “Raw data” value (Gartisertib experiment, replicate R2, titrated drug dose 3000 nM) of the same molecule?
A: 1.89

Q: What about the “Raw data” value (Gartisertib experiment, replicate R3, titrated drug dose 1 nM) of the same molecule?
A: 4.16

Q: And the “Raw data” value (Gartisertib experiment, replicate R3, titrated drug dose 3 nM)?
A: 3.98

Q: What about the “Raw data” value (Gartisertib experiment, replicate R3, titrated drug dose 10 nM) of the same molecule?
A: 3.74

Q: What about the “Raw data” value (Gartisertib experiment, replicate R3, titrated drug dose 30 nM) of the same molecule?
A: 3.24

Q: What about the “Raw data” value (Gartisertib experiment, replicate R3, titrated drug dose 100 nM) of the same molecule?
A: 2.56

Q: And the “Raw data” value (Gartisertib experiment, replicate R3, titrated drug dose 300 nM)?
A: 2.02

Q: And the pEC50 (ASPC1, 72 h, AsPC1, Experiment GEM (Gemcitabine alone) in the Berzosertib series, single replicates R1-R3)?
A: 7.46

Q: And the pEC50 (ASPC1, 72 h, AsPC1, Experiment GEM (Gemcitabine alone) in the Ceralasertib series, single replicates R1-R3)?
A: 7.37

Q: And the pEC50 (ASPC1, 72 h, AsPC1, Experiment GEM (Gemcitabine alone) in the Elimusertib series, single replicates R1-R3)?
A: 7.37

Q: What about the pEC50 (ASPC1, 72 h, AsPC1, Experiment GEM (Gemcitabine alone) in the Gartisertib series, single replicates R1-R3) of the same molecule?
A: 7.47

Q: And the pEC50 (ASPC1, 72 h, read-out: EC50 (cell growth), GEM alone, mean of four experiments)?
A: 7.35

Q: And the EC50 (ASPC1, 72 h, read-out: EC50 mean [nM], AsPC1, Experiment GEM alone in the Berzosertib series, mean of replicates)?
A: 40.5 nM

Q: What about the EC50 (ASPC1, 72 h, read-out: EC50 mean [nM], AsPC1, Experiment GEM alone in the Ceralasertib series, mean of replicates) of the same molecule?
A: 45.5 nM

Q: And the EC50 (ASPC1, 72 h, read-out: EC50 mean [nM], AsPC1, Experiment GEM alone in the Elimusertib series, mean of replicates)?
A: 44.4 nM

Q: And the EC50 (ASPC1, 72 h, read-out: EC50 mean [nM], AsPC1, Experiment GEM alone in the Gartisertib series, mean of replicates)?
A: 46 nM

Q: What about the EC50 (ASPC1, 72 h, read-out: pEC50, AsPC1 (converted), Experiment GEM (Gemcitabine alone) in the Berzosertib series, single replicates R1-R3) of the same molecule?
A: 34.7 nM

Q: What about the EC50 (ASPC1, 72 h, read-out: pEC50, AsPC1 (converted), Experiment GEM (Gemcitabine alone) in the Ceralasertib series, single replicates R1-R3) of the same molecule?
A: 42.7 nM

Q: What about the EC50 (ASPC1, 72 h, read-out: pEC50, AsPC1 (converted), Experiment GEM (Gemcitabine alone) in the Elimusertib series, single replicates R1-R3) of the same molecule?
A: 42.7 nM

Q: What about the EC50 (ASPC1, 72 h, read-out: pEC50, AsPC1 (converted), Experiment GEM (Gemcitabine alone) in the Gartisertib series, single replicates R1-R3) of the same molecule?
A: 33.9 nM

Q: And the EC50 (ASPC1, read-out: EC50 mean [nM], AsPC1, Experiment GEM alone in the Berzosertib series, mean of replicates)?
A: 40.5 nM

Q: And the EC50 (ASPC1, read-out: EC50 mean [nM], AsPC1, Experiment GEM alone in the Ceralasertib series, mean of replicates)?
A: 45.5 nM

Q: And the EC50 (ASPC1, read-out: EC50 mean [nM], AsPC1, Experiment GEM alone in the Elimusertib series, mean of replicates)?
A: 44.4 nM

Q: What about the EC50 (ASPC1, read-out: EC50 mean [nM], AsPC1, Experiment GEM alone in the Gartisertib series, mean of replicates) of the same molecule?
A: 46 nM

Q: And the pEC50 (ASPC1, read-out: EC50 mean, GEM alone, Berzosertib experiment)?
A: 7.39

Q: What about the pEC50 (ASPC1, read-out: EC50 mean, GEM alone, Ceralasertib experiment) of the same molecule?
A: 7.34

Q: What about the pEC50 (ASPC1, read-out: EC50 mean, GEM alone, Elimusertib experiment) of the same molecule?
A: 7.35

Q: What about the pEC50 (ASPC1, read-out: EC50 mean, GEM alone, Gartisertib experiment) of the same molecule?
A: 7.34

Q: What about the “Raw data” value (titrated drug dose 10 nM, replicate R3, experiment (ATRi) Ceralasertib, AsPC-1, 72 h) of the same molecule?
A: 3.37

Q: What about the “Raw data” value (titrated drug dose 30 nM, replicate R3, experiment (ATRi) Ceralasertib, AsPC-1, 72 h) of the same molecule?
A: 2.93

Q: And the “Raw data” value (titrated drug dose 1000 nM, replicate R3, experiment (ATRi) Ceralasertib, AsPC-1, 72 h)?
A: 1.56
